Peptide text beside a SMILES is read from it.
Tests used:
rats [1] = test: rat-tail flick method, intracerebroventricular injection; assay type: in vivo; parameters: Mean Latency ± SEM Baseline / Mean Latency ± SEM Drug: unit not given here; conditions: lateral ventricle; for Mean % Change ± SEM: change in latency (drug minus baseline); for Mean Latency ± SEM Baseline / Mean Latency ± SEM Drug: rat-tail flick; for Mean Latency ± SEM Baseline: baseline before drug
Method: In this test method, which is a standard test for analgesia, a light beam is focused on the tip of the rat's tail, and the pain threshold of the animal is measured by the latency of the rat to remove his tail from the noxious heat source. When tested by the rat-tail flick method by intracerebroventricular injection, according to the procedure of Belluzzi et al., Nature, 260, 625 (1976), the polypeptides of this invention produced the effects set forth in Table I.
*All drugs were dissolved in […]. of Ringer's solution and injected int
the lateral ventricle through permanently-indwelling cannulae.

rats [2] = conditions: injection in the brain ventricle; cited from earlier work

SMILES	Mean % Change ± SEM (rats [1]; dose 25 μg, 1 rat)	Mean % Change ± SEM (rats [1]; dose 50 μg)	Mean % Change ± SEM (rats [1]; dose 100 μg)	Mean Latency ± SEM Baseline (rats [1]; dose group 25 μg, 1 rat)	Mean Latency ± SEM Baseline (rats [1]; dose group 50 μg)	Mean Latency ± SEM Baseline (rats [1]; dose group 100 μg)	Mean Latency ± SEM Drug (rats [1]; dose 25 μg, 1 rat)	Mean Latency ± SEM Drug (rats [1]; dose 50 μg)	Mean Latency ± SEM Drug (rats [1]; dose 100 μg)	analgesia (rats [2])	Mean Latency ± SEM Baseline (rats [1]; dose group 10 μg)
CSCC[C@H](NC(=O)[C@H](Cc1ccccc1)NC(=O)CNC(=O)CNC(=O)[C@H](Cc1ccc(O)cc1)NC(=O)[C@@H](N)CCCNC(=N)N)C(=O)N[C@H](C(=O)N[C@@H](CO)C(=O)O)[C@@H](C)O [L-Arginyl-L-Tyrosyl-Glycyl-Glycyl-L-Phenylalanyl-L-Methionyl-L-Threonyl-L-Serine] (H-RYGGFMTS-OH)	69.60%	74.13 ± 15.56%	55.13 ± 51.71%	3.54	3.55 ± 0.13	3.43 ± 0.05	6.01	6.18 ± 0.55	5.29 ± 1.10		
CSCC[C@H](NC(=O)[C@H](Cc1ccccc1)NC(=O)CNC(=O)CNC(=O)[C@@H](N)Cc1ccc(O)cc1)C(=O)O [Methionine-Enkephalin, H-Tyr-Gly-Gly-Phe-Met-OH, reference compound]						3.83 ± 0.14				induce a profound analgesia that is fully reversible by naloxone	
CN1CC[C@]23c4c5ccc(O)c4O[C@H]2[C@@H](O)C=C[C@H]3[C@H]1C5 [Morphine]											3.96 ± 0.42
